Experimental data from the NIST ThermoML archive (doi:10.1021/je049960h).

Conditions: 101.33 kPa, Liquid; for viscosity: Capillary tube (Ostwald / Ubbelohde) method; for mass density: Pycnometric method; for thermal conductivity: Hot wire method

CC(O)CO (stereo not drawn) [1,2-propanediol]
Conditions	mass density [kg/m3]	thermal conductivity [W/m/K]	viscosity [mPa·s]
297.25 K	–	–	46.4
298.85 K	1033	–	–
299.1 K	–	0.196	–
302.55 K	–	–	34
313.6 K	–	0.195	–
317.1 K	–	–	16.4
318.05 K	1018	–	–
332.3 K	–	–	8.75
332.9 K	–	0.195	–
339 K	1003	–	–
347.4 K	–	–	5.26
352.3 K	–	0.194	–
359.4 K	986.1	–	–
362.05 K	–	–	3.42
371.6 K	–	0.193	–
376.45 K	–	–	2.34
380.95 K	967.6	–	–
391.05 K	–	–	1.67
391.1 K	–	0.192	–
399.6 K	951.2	–	–
406.05 K	–	–	1.27
411.4 K	–	0.19	–
420.2 K	931.7	–	–
420.85 K	–	–	0.982
430.4 K	–	0.187	–
440.35 K	912.2	–	–
450.8 K	–	0.183	–

CC(O)COC(C)COC(C)CO (stereo not drawn) [2-[2-(2-hydroxypropoxy)propoxy]-1-propanol]
Conditions	mass density [kg/m3]	thermal conductivity [W/m/K]	viscosity [mPa·s]
294.82 K	–	–	69.4
295.01 K	1017	–	–
298.1 K	–	0.152	–
313.05 K	1003	–	23.6
326.1 K	–	0.152	–
333.1 K	986.4	–	9.64
351.1 K	–	0.15	–
353.1 K	969.9	–	4.85
372.15 K	953.5	–	2.91
376.2 K	–	0.148	–
391.5 K	936.4	–	1.91
399.4 K	–	0.145	–
411.35 K	918.7	–	1.33
424.9 K	–	0.14	–
428.2 K	903.3	–	1.03
449.6 K	–	0.135	–

OCCCOCCCO [4-oxa-1,7-heptanediol]
Conditions	mass density [kg/m3]	thermal conductivity [W/m/K]	viscosity [mPa·s]
297.42 K	–	–	81.5
297.45 K	1020	–	–
298.2 K	–	0.156	–
309.8 K	–	0.157	–
313.05 K	1008	–	–
313.07 K	–	–	29.8
316.9 K	–	0.156	–
333.1 K	992.4	–	11.1
347.4 K	–	0.156	–
353.1 K	976.1	–	5.24
363 K	–	0.156	–
372.25 K	960.3	–	3
377.6 K	–	0.155	–
391.45 K	943.1	–	1.9
391.6 K	–	0.154	–
405.7 K	–	0.153	–
408.35 K	928.1	–	1.36
420.3 K	916.9	–	1.1
420.6 K	–	0.151	–
428.3 K	909.6	–	0.97
435.1 K	–	0.149	–
